Source: US10221163B2 (priority 2015, dated 2019)
Like-named read-outs stand apart in the source and are kept apart here.

Key:
[1] = system: Pseudomonas aeruginosa efflux+ (MB9798), IMP-1; assay type: cell-based; details: concentration restoring susceptibility to imipenem at 2 μg/mL in the presence of a class A, C, D serine β-lactamase inhibitor closely related to relebactam
Summary of the method: (§1)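 PAO1 pair, broth microdilution; fixed β-lactam (imipenem/ceftazidime) at ~CLSI breakpoint + fixed class A/C BLI for AmpC; serial MBLi titration; endpoint = MBLi conc. restoring susceptibility; MB9798:MB9799 ratio = efflux liability.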

[2] = system: Serratia marcescens expressing IMP-1 (CL5741); assay type: cell-based; details: with imipenem 1 μg/ml; 95% inhibition of bacterial growth
Summary of the method: (§2)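 Colonies grown overnight on blood agar at 35° C were suspended in saline, diluted 1:100 into 1.1×CAMHB and dispensed. Imipenem was added to 1 μg/ml, then test compound. After 22 hours to 24 hours at 35° C, absorbance was recorded.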

[3] = system: Escherichia coli expressing NDM-1 (CLB30005, CLB30016); assay type: cell-based; details: with imipenem 1 μg/ml; 95% inhibition of bacterial growth
Summary of the method: as §2

[4] = system: Klebsiella pneumoniae expressing VIM-1 (IHMA599644); assay type: cell-based; details: with imipenem 1 μg/ml; 95% inhibition of bacterial growth
Summary of the method: as §2

[5] = system: Pseudomonas aeruginosa MB9798 vs MB9799; details: ratio MITC95 PA_9798/MITC95 PA_9799
Summary of the method: as §1

IMP-1 = IMP-1 (Serratia marcescens, UniProt P52699); assay: biochemical; assay type: biochemical; details: fluorescence assay, CCF2-FA substrate, 2 pM enzyme, 2 hours at 25° C.; read-out: IMP-1 IC50
Chain of IMP-1 (P52699 whole entry, looked up, species assumed): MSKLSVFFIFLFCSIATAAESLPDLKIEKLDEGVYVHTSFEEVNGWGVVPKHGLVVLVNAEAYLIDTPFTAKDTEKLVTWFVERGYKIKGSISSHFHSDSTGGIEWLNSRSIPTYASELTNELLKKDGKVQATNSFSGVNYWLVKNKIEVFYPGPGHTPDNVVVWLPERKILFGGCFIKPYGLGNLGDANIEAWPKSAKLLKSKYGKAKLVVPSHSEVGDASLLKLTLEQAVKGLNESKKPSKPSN
Summary of the method: (§3)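 Enzyme activity was measured by fluorescence using CCF2-FA, a cephalosporin-linked 7-hydroxycoumarin/fluorescein substrate, with inhibitor, metallo-β-lactamase and substrate incubated together for 2 hours at 25° C. IC50 came from a 4-parameter fit of inhibition versus log inhibitor concentration.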

NDM-1 = NDM-1 (Klebsiella pneumoniae, UniProt C7C422); assay: biochemical; assay type: biochemical; details: fluorescence assay, CCF2-FA substrate, 1 pM enzyme, 2 hours at 25° C.; read-out: NDM-1 IC50
Chain of NDM-1 (C7C422 whole entry, looked up, species assumed): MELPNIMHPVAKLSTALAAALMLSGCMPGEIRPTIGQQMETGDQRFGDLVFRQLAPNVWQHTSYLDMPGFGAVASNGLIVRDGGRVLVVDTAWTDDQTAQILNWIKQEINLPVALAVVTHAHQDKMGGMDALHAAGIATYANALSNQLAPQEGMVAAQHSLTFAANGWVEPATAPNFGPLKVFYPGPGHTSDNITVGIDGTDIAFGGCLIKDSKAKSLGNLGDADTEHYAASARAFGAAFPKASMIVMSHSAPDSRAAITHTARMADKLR
Summary of the method: as §3

[6] = system: Pseudomonas aeruginosa efflux− (MB9799), IMP-1; assay type: cell-based; details: concentration restoring susceptibility to imipenem at 2 μg/mL in the presence of a class A, C, D serine β-lactamase inhibitor closely related to relebactam
Summary of the method: as §1

VIM-1 = VIM-1 (Pseudomonas aeruginosa (strain ATCC 15692 / DSM 22644 / CIP 104116 / JCM 14847 / LMG 12228 / 1C / PRS 101 / PAO1), UniProt A0A0F7KYQ8); assay: biochemical; details: CCF2-FA substrate, 30 pM enzyme, 2 hours at 25° C.
Summary of the method: as §3

[7] = fluorescence assay, read-out: VIM-1 IC50

N#Cc1cccc(-c2ccc(S(=O)(=O)N[C@@H]3CCNC3)c(S(N)(=O)=O)c2-c2nnn[nH]2)c1N [Example 132, (R)-2′-amino-3′-cyano-N4-(pyrrolidin-3-yl)-2-(1H-tetrazol-5-yl)-[1,1′-biphenyl]-3,4-disulfonamide]
P. aeruginosa expressing IMP-1, efflux + (MB9798) MITC95 [1]: 3.125 µM | Serratia marcescens expressing IMP-1 (CL5741) MITC95 [2]: 1.563 µM | Escherichia coli expressing NDM-1 (CLB30016) MITC95 [3]: 0.7813 µM | Klebsiella pneumoniae expressing VIM-1 (IHMA599644) MITC95 [4]: 1.563 µM | Efflux ratio [5]: 4.00 | IC50 (IMP-1): 1.4 nM | IC50 (NDM-1): 0.114 nM | P. aeruginosa expressing IMP-1, efflux − (MB9799) MITC95 [6]: 0.7813 µM | IC50 (VIM-1; [7]): 0.124 nM

NS(=O)(=O)c1c(S(=O)(=O)N[C@@H]2CCNC2)ccc(-c2ccc3nonc3c2)c1-c1nnn[nH]1 [Example 133, (R)-4-(benzo[c][1,2,5]oxadiazol-5-yl)-N1-(pyrrolidin-3-yl)-3-(1H-tetrazol-5-yl)benzene-1,2-disulfonamide]
P. aeruginosa expressing IMP-1, efflux + (MB9798) MITC95 [1]: 6.25 µM | Serratia marcescens expressing IMP-1 (CL5741) MITC95 [2]: 1.563 µM | Escherichia coli expressing NDM-1 (CLB30016) MITC95 [3]: 0.7813 µM | Klebsiella pneumoniae expressing VIM-1 (IHMA599644) MITC95 [4]: 1.563 µM | Efflux ratio [5]: 8.00 | IC50 (IMP-1): 0.816 nM | IC50 (NDM-1): 0.341 nM | P. aeruginosa expressing IMP-1, efflux − (MB9799) MITC95 [6]: 0.7813 µM | IC50 (VIM-1; [7]): 0.118 nM

Cn1nnc2ccc(-c3ccc(S(=O)(=O)N[C@@H]4CCNC4)c(S(N)(=O)=O)c3-c3nnn[nH]3)cc21 [Example 134, (R)-4-(1-methyl-1H-benzo[d][1,2,3]triazol-6-yl)-N1-(pyrrolidin-3-yl)-3-(1H-tetrazol-5-yl)benzene-1,2-disulfonamide]
P. aeruginosa expressing IMP-1, efflux + (MB9798) MITC95 [1]: 25 µM | Serratia marcescens expressing IMP-1 (CL5741) MITC95 [2]: 3.125 µM | Escherichia coli expressing NDM-1 (CLB30016) MITC95 [3]: 1.563 µM | Klebsiella pneumoniae expressing VIM-1 (IHMA599644) MITC95 [4]: 3.125 µM | Efflux ratio [5]: 15.99 | IC50 (IMP-1): 2.07 nM | IC50 (NDM-1): 0.301 nM | P. aeruginosa expressing IMP-1, efflux − (MB9799) MITC95 [6]: 1.563 µM | IC50 (VIM-1; VIM-1 IC50, fluorescence assay): 0.14 nM

NS(=O)(=O)c1ccc(-c2ccc(S(=O)(=O)N[C@@H]3CCNC3)c(S(N)(=O)=O)c2-c2nnn[nH]2)cc1 [Example 135, (R)-N4-(pyrrolidin-3-yl)-2-(1H-tetrazol-5-yl)-[1,1′-biphenyl]-3,4,4′-trisulfonamide]
P. aeruginosa expressing IMP-1, efflux + (MB9798) MITC95 [1]: 0.7813 µM | Serratia marcescens expressing IMP-1 (CL5741) MITC95 [2]: 1.563 µM | Escherichia coli expressing NDM-1 (CLB30016) MITC95 [3]: 1.563 µM | Klebsiella pneumoniae expressing VIM-1 (IHMA599644) MITC95 [4]: 1.563 µM | Efflux ratio [5]: 1.00 | IC50 (IMP-1): 0.229 nM | IC50 (NDM-1): 0.136 nM | P. aeruginosa expressing IMP-1, efflux − (MB9799) MITC95 [6]: 0.7813 µM | IC50 (VIM-1; [7]): 0.107 nM

CS(=O)(=O)Nc1ccc(-c2ccc(S(=O)(=O)N[C@@H]3CCNC3)c(S(N)(=O)=O)c2-c2nnn[nH]2)cc1 [Example 136, (R)-4′-(methylsulfonamido)-N4-(pyrrolidin-3-yl)-2-(1H-tetrazol-5-yl)-[1,1′-biphenyl]-3,4-disulfonamide]
P. aeruginosa expressing IMP-1, efflux + (MB9798) MITC95 [1]: 1.563 µM | Serratia marcescens expressing IMP-1 (CL5741) MITC95 [2]: 3.125 µM | Escherichia coli expressing NDM-1 (CLB30016) MITC95 [3]: 1.563 µM | Klebsiella pneumoniae expressing VIM-1 (IHMA599644) MITC95 [4]: 1.563 µM | Efflux ratio [5]: 2.00 | IC50 (IMP-1): 0.0755 nM | IC50 (NDM-1): 0.0368 nM | P. aeruginosa expressing IMP-1, efflux − (MB9799) MITC95 [6]: 0.7813 µM | IC50 (VIM-1; [7]): 0.105 nM

NC(=O)c1ccc(-c2ccc(S(=O)(=O)N[C@@H]3CCNC3)c(S(N)(=O)=O)c2-c2nnn[nH]2)cc1 [Example 137, (R)-4′-(N-(pyrrolidin-3-yl)sulfamoyl)-3′-sulfamoyl-2′-(1H-tetrazol-5-yl)-[1,1′-biphenyl]-4-carboxamide]
P. aeruginosa expressing IMP-1, efflux + (MB9798) MITC95 [1]: 0.7813 µM | Serratia marcescens expressing IMP-1 (CL5741) MITC95 [2]: 3.125 µM | Escherichia coli expressing NDM-1 (CLB30016) MITC95 [3]: 3.125 µM | Klebsiella pneumoniae expressing VIM-1 (IHMA599644) MITC95 [4]: 3.125 µM | Efflux ratio [5]: 1.00 | IC50 (IMP-1): 0.265 nM | IC50 (NDM-1): 0.126 nM | P. aeruginosa expressing IMP-1, efflux − (MB9799) MITC95 [6]: 0.7813 µM | IC50 (VIM-1; [7]): 0.157 nM

NS(=O)(=O)c1c(S(=O)(=O)N[C@@H]2CCNC2)ccc(-c2ccc3c(c2)C(=O)NC3)c1-c1nnn[nH]1 [Example 138, (R)-4-(3-oxoisoindolin-5-yl)-N1-(pyrrolidin-3-yl)-3-(1H-tetrazol-5-yl)benzene-1,2-disulfonamide]
P. aeruginosa expressing IMP-1, efflux + (MB9798) MITC95 [1]: 1.563 µM | Serratia marcescens expressing IMP-1 (CL5741) MITC95 [2]: 3.125 µM | Escherichia coli expressing NDM-1 (CLB30016) MITC95 [3]: 3.125 µM | Klebsiella pneumoniae expressing VIM-1 (IHMA599644) MITC95 [4]: 3.125 µM | Efflux ratio [5]: 1.00 | IC50 (IMP-1): 0.275 nM | IC50 (NDM-1): 0.124 nM | P. aeruginosa expressing IMP-1, efflux − (MB9799) MITC95 [6]: 1.563 µM | IC50 (VIM-1; [7]): 0.15 nM

NS(=O)(=O)c1c(S(=O)(=O)N[C@@H]2CCNC2)ccc(-c2cccc3cn[nH]c23)c1-c1nnn[nH]1 [Example 139, (R)-4-(1H-indazol-7-yl)-N1-(pyrrolidin-3-yl)-3-(1H-tetrazol-5-yl)benzene-1,2-disulfonamide]
P. aeruginosa expressing IMP-1, efflux + (MB9798) MITC95 [1]: 0.7813 µM | Serratia marcescens expressing IMP-1 (CL5741) MITC95 [2]: 1.563 µM | Escherichia coli expressing NDM-1 (CLB30016) MITC95 [3]: 0.7813 µM | Klebsiella pneumoniae expressing VIM-1 (IHMA599644) MITC95 [4]: 3.125 µM | Efflux ratio [5]: 1.00 | IC50 (IMP-1): 0.41 nM | IC50 (NDM-1): 0.0582 nM | P. aeruginosa expressing IMP-1, efflux − (MB9799) MITC95 [6]: 0.7813 µM | IC50 (VIM-1; VIM-1 IC50, fluorescence assay): 0.141 nM

NS(=O)(=O)c1c(S(=O)(=O)N[C@@H]2CCNC2)ccc(-c2cnc3ccccn23)c1-c1nnn[nH]1 [Example 140, (R)-4-(imidazo[1,2-a]pyridin-3-yl)-N1-(pyrrolidin-3-yl)-3-(1H-tetrazol-5-yl)benzene-1,2-disulfonamide]
P. aeruginosa expressing IMP-1, efflux + (MB9798) MITC95 [1]: 1.563 µM | Serratia marcescens expressing IMP-1 (CL5741) MITC95 [2]: 1.563 µM | Escherichia coli expressing NDM-1 (CLB30016) MITC95 [3]: 0.7813 µM | Klebsiella pneumoniae expressing VIM-1 (IHMA599644) MITC95 [4]: 1.563 µM | Efflux ratio [5]: 2.00 | IC50 (IMP-1): 0.779 nM | IC50 (NDM-1): 0.0867 nM | P. aeruginosa expressing IMP-1, efflux − (MB9799) MITC95 [6]: 0.7813 µM | IC50 (VIM-1; [7]): 0.111 nM

C[C@H]1NC(=O)O[C@H]1c1ccc(-c2ccc(S(=O)(=O)N[C@@H]3CCNC3)c(S(N)(=O)=O)c2-c2nnn[nH]2)cc1 [Example 141, 4′-((4R,5S)-4-methyl-2-oxooxazolidin-5-yl)-N4-((R)-pyrrolidin-3-yl)-2-(1H-tetrazol-5-yl)-[1,1′-biphenyl]-3,4-disulfonamide]
P. aeruginosa expressing IMP-1, efflux + (MB9798) MITC95 [1]: 1.563 µM | Serratia marcescens expressing IMP-1 (CL5741) MITC95 [2]: 6.25 µM | Escherichia coli expressing NDM-1 (CLB30016) MITC95 [3]: 3.125 µM | Klebsiella pneumoniae expressing VIM-1 (IHMA599644) MITC95 [4]: 6.25 µM | Efflux ratio [5]: 1.00 | IC50 (IMP-1): 0.0408 nM | IC50 (NDM-1): 0.0186 nM | P. aeruginosa expressing IMP-1, efflux − (MB9799) MITC95 [6]: 1.563 µM | IC50 (VIM-1; [7]): 0.0623 nM

Nc1nc2c(-c3ccc(S(=O)(=O)N4CCNCC4)c(S(N)(=O)=O)c3-c3nn[nH]n3)cccc2s1 [Example 142, 3-(2-Aminobenzo[d]thiazol-4-yl)-6-(piperazin-1-ylsulfonyl)-2-(2H-tetrazol-5-yl)benzenesulfonamide]
P. aeruginosa expressing IMP-1, efflux + (MB9798) MITC95 [1]: 1.563 µM | Serratia marcescens expressing IMP-1 (CL5741) MITC95 [2]: 1.563 µM | Escherichia coli expressing NDM-1 (CLB30016) MITC95 [3]: 3.906 µM | Klebsiella pneumoniae expressing VIM-1 (IHMA599644) MITC95 [4]: 3.125 µM | Efflux ratio [5]: 1.33 | IC50 (IMP-1): 0.636 nM | IC50 (NDM-1): 0.185 nM | P. aeruginosa expressing IMP-1, efflux − (MB9799) MITC95 [6]: 1.172 µM | IC50 (VIM-1; [7]): 0.558 nM
